The record followed here is PMC12396409, “Screening and hit evaluation of a microbial metabolite library against the pathogenic Plasmodium falciparum and Toxoplasma gondii parasites” (International Journal for Parasitology: Drugs and Drug …, 2025).

Each structure is given as a SMILES string. Read-outs that look alike come from different tables or passages of the source. *1 amine or outer side, *2 acyl side, *3 side chain or, on linkers, in order; H or OH if unused. Where a SMILES comes first, the peptide text is derived from it. Bridges are numbered along the chain shown (N, C = ends). [ ]: non-standard residue; d: D form. The star is where a group is joined. pTerphenylCO(4''-OnC5H11) = CCCCCOc1ccc(-c2ccc(-c3ccc(C(=O)*)cc3)cc2)cc1; Orn(4R-OH,5R-OH) = O=C([C@H](C[C@@H](O)[C@@H](O)N[*:3])N[*:1])[*:2]; hTyr(3S-OH,4S-OH) = N[C@H](C(=O)O)[C@H](O)[C@@H](O)c1ccc(O)cc1; Pro(3S-OH,4S-Me) = C[C@H]1CN[C@H](C(=O)O)[C@H]1O; Hyp = O=C(O)[C@@H]1C[C@@H](O)CN1 Where only a bound is given, the exact number is not on record here.

For experiment [1], the system named is P. falciparum 3D7 parasites. Nature of the experiment: P. falciparum growth inhibition assay, 1-cycle (72 h treatment), SYBR DNA staining (library screen at 2 μg/mL and dose-response). In kind it is cell-based, Plasmodium falciparum.
Experiment [2] has as its system T. gondii RH strain (RH-Tub-eYFP) tachyzoites. Nature of the experiment: microbe, parasite or virus in culture. The format is cell-based, Toxoplasma gondii. To be noted: 72 h.
The test system of experiment [3] is P. falciparum 3D7 parasites. Nature of the experiment: P. falciparum growth inhibition assay, 2-cycle (120 h treatment), delayed-death screen and dose-response. The format is cell-based, Plasmodium falciparum.
Where [4] appears, read: Toxoplasma gondii, T. gondii, screen at 2 μg/mL, replicate 1, read-out: Tg_72h_%Growth_Rep1.
The mark [5] stands for this setting: Toxoplasma gondii, T. gondii, screen at 2 μg/mL, replicate 2, read-out: Tg_72h_%Growth_Rep2.
Where [6] appears, read: P. falciparum, 72 h, parasite screen 2 μg/mL, % growth, replicate 1.
Setting [7] is: P. falciparum, 72 h, parasite screen 2 μg/mL, % growth, replicate 2.
Where [8] appears, read: T. gondii, parasite screen 2 μg/mL, % growth, replicate 1.
[9] abbreviates: T. gondii, parasite screen 2 μg/mL, % growth, replicate 2.
[10] abbreviates: P. falciparum, 120 h, parasite screen 2 μg/mL, % growth, replicate 1.
Setting [11] is: P. falciparum, 120 h, parasite screen 2 μg/mL, % growth, replicate 2.

`CCCCCOc1ccc(-c2ccc(-c3ccc(C(=O)N[C@H]4C[C@@H](O)[C@@H](O)NC(=O)[C@@H]5[C@@H](O)[C@@H](C)CN5C(=O)[C@H]([C@@H](C)O)NC(=O)[C@H]([C@H](O)[C@@H](O)c5ccc(O)cc5)NC(=O)[C@@H]5C[C@@H](O)CN5C(=O)[C@H]([C@@H](C)O)NC4=O)cc3)cc2)cc1` [Anidulafungin] ({pTerphenylCO(4''-OnC5H11)}-[Orn(4R-OH,5R-OH)]T[Hyp][hTyr(3S-OH,4S-OH)]T[Pro(3S-OH,4S-Me)]; lactam 1-C): the activity at 2 µg/mL in experiment [1] (Plasmodium falciparum, 3D7, library screen at 2 μg/mL, 72 h, % growth, replicate 1, read-out: Pf_72h_%Growth_Rep1) was 93.1%; in experiment [1] (Plasmodium falciparum, 3D7, library screen at 2 μg/mL, 72 h, % growth, replicate 2, read-out: Pf_72h_%Growth_Rep2), 85.8%; in experiment [3] (Plasmodium falciparum, 3D7, library screen at 2 μg/mL, 120 h, % growth, replicate 1, read-out: Pf_120h_%Growth_Rep1), 162%; in experiment [3] (Plasmodium falciparum, 3D7, library screen at 2 μg/mL, 120 h, % growth, replicate 2, read-out: Pf_120h_%Growth_Rep2), 103%. Besides, the percent parasite growth at 2 µg/mL in experiment [2] (Toxoplasma gondii, library screen at 2 μg/mL, % growth, replicate 1, read-out: Tg_72h_%Growth_Rep1) turned out to be 88.8%; in experiment [2] (Toxoplasma gondii, library screen at 2 μg/mL, % growth, replicate 2, read-out: Tg_72h_%Growth_Rep2), 95.8%.

Take `CC(=O)C1=C(O)[C@@H]2[C@H]3c4c[nH]c5cccc(c45)C[C@H]3C(C)(C)N2C1=O` [Cyclopiazonic acid]: the activity at 2 µg/mL in experiment [1] (Plasmodium falciparum, 3D7, 72 h, P. falciparum, 72 h, screen at 2 μg/mL, replicate 1, read-out: Pf_72h_%Growth_Rep1) was determined as 12.6%; in experiment [1] (Plasmodium falciparum, 3D7, 72 h, P. falciparum, 72 h, screen at 2 μg/mL, replicate 2, read-out: Pf_72h_%Growth_Rep2), 7.26%; in experiment [3] (Plasmodium falciparum, 3D7, 120 h, P. falciparum, 120 h, screen at 2 μg/mL, replicate 1, read-out: Pf_120h_%Growth_Rep1), 14%; in experiment [3] (Plasmodium falciparum, 3D7, 120 h, P. falciparum, 120 h, screen at 2 μg/mL, replicate 2, read-out: Pf_120h_%Growth_Rep2) it was 9.35%. Besides, the results for the percent parasite growth at 2 µg/mL in experiment [2] (setting [4]) and in experiment [2] (setting [5]) were 0.36% and 3.22%, respectively.

`C=C[C@]1(C)C[C@@H](OC(=O)CSCCN(CC)CC)[C@]2(C)[C@H](C)CC[C@]3(CCC(=O)[C@H]32)[C@@H](C)[C@@H]1O` [Tiamulin, reference compound]: the activity at 2 µg/mL was 55% in experiment [1] (Plasmodium falciparum, 3D7; P. falciparum, 2 μg/mL, 72 h; read-out: 1) Growth (%) at 72 h); 61.3% in experiment [1] (Plasmodium falciparum, 3D7, P. falciparum, 72 h, screen at 2 μg/mL, replicate 1, read-out: Pf_72h_%Growth_Rep1); 48.7% in experiment [1] (Plasmodium falciparum, 3D7, P. falciparum, 72 h, screen at 2 μg/mL, replicate 2, read-out: Pf_72h_%Growth_Rep2); 7.81% in experiment [3] (Plasmodium falciparum, 3D7; P. falciparum, 2 μg/mL, 120 h; read-out: 2) Growth (%) at 120 h); 6.75% in experiment [3] (Plasmodium falciparum, 3D7, P. falciparum, 120 h, screen at 2 μg/mL, replicate 1, read-out: Pf_120h_%Growth_Rep1); 8.86% in experiment [3] (Plasmodium falciparum, 3D7, P. falciparum, 120 h, screen at 2 μg/mL, replicate 2, read-out: Pf_120h_%Growth_Rep2). Moreover, the IC50 in experiment [1] (Plasmodium falciparum, 3D7, 72 h treatment, mean ± S.D., n ≥ 3, read-out: IC50 (μM), P. falciparum) is above 1 µM; in experiment [2] (Toxoplasma gondii, RH strain, mean ± S.D., n ≥ 3, read-out: IC50 (μM), T. gondii (converted)), above 1 µM; in experiment [3] (Plasmodium falciparum, 3D7, read-out: IC50, P. falciparum, 120 h dose-response (delayed-death)), around 1 µM. Besides, the percent parasite growth at 2 µg/mL in experiment [2] (setting [4]) came to 55.8%; in experiment [2] (setting [5]), 29.4%. Also, the “Screen (T. gondii)” value in experiment [2] (library screen at 2 μg/mL, RH strain) was “I”. Further, the “delayed-death activity in the 120 h screen against P. falciparum” value in experiment [3] (2 μg/mL, criteria: ≥40 % growth at 72 h, ≤20 % growth at 120 h, at least 5-fold) was “delayed-death activity”. Further, the “3) Fold change (72 h/120 h)” value in experiment [3] (P. falciparum, growth at 72 h / growth at 120 h, 2 μg/mL) is 7.0.

In experiment [1] (P. falciparum 3D7, 72 h, parasite screen at 2 μg/mL, % growth, replicate 1), `C=C[C@]1(C)C[C@@H](O)[C@]2(C)[C@H](C)CC[C@]3(CCC(=O)[C@H]32)[C@@H](C)[C@@H]1O` [BIA-M1333] showed a Pf_72h_%Growth_Rep1 of 79.79%. In experiment [1] (P. falciparum 3D7, 72 h, parasite screen at 2 μg/mL, % growth, replicate 2), this compound yielded a Pf_72h_%Growth_Rep2 of 96.77%. The Tg_72h_%Growth_Rep1 in experiment [2] (T. gondii, parasite screen at 2 μg/mL, % growth, replicate 1) is recorded as 107.76%. Moreover, in experiment [2] (T. gondii, parasite screen at 2 μg/mL, % growth, replicate 2), the Tg_72h_%Growth_Rep2 was 90.41%. In experiment [3] (P. falciparum 3D7, 120 h, parasite screen at 2 μg/mL, % growth, replicate 1), this compound showed a Pf_120h_%Growth_Rep1 of 84.29%. Also, the Pf_120h_%Growth_Rep2 in experiment [3] (P. falciparum 3D7, 120 h, parasite screen at 2 μg/mL, % growth, replicate 2) worked out at 105.61%.

As to `Cc1cc(O)c2c3c1C(=O)C=C1C(C)(C)C(=O)c4c(O)cc(O)c(c4C13O)C2=O` (centres unmarked) [Resistoflavine], the Pf_72h_%Growth_Rep1 in experiment [1] (setting [6]) stood at 97.04%. The same compound displayed a Pf_72h_%Growth_Rep2 in experiment [1] (setting [7]) of 109.63%. Besides, in experiment [2] (setting [8]), the Tg_72h_%Growth_Rep1 turned out to be 250.44%. In experiment [2] (setting [9]), the Tg_72h_%Growth_Rep2 stood at 135.44%. The same compound had a Pf_120h_%Growth_Rep1 in experiment [3] (setting [10]) of 116.77%. This compound also displayed a Pf_120h_%Growth_Rep2 in experiment [3] (setting [11]) of 93.07%.

`CC(/C=C/[C@H](O)[C@@H](C)/C=C/C(=O)O)=C\C[C@H]1O[C@]2(CC[C@@H]1C)CC[C@@](CCC(C)C)(OC(=O)CCC(=O)O)[C@H](/C=C/C(C)=C/C(=O)O)O2` [Reveromycin C] gave a Pf_72h_%Growth_Rep1 in experiment [1] (setting [6]) of 86.43%. The compound further registered a Pf_72h_%Growth_Rep2 in experiment [1] (setting [7]) of 70.33%. Besides, in experiment [2] (setting [8]), the Tg_72h_%Growth_Rep1 stood at 140.65%. This compound also gave a Tg_72h_%Growth_Rep2 in experiment [2] (setting [9]) of 73.99%. The compound further yielded a Pf_120h_%Growth_Rep1 in experiment [3] (setting [10]) of 71.01%. In addition, the Pf_120h_%Growth_Rep2 in experiment [3] (setting [11]) is listed as 60.10%.

The term IC50 denotes the concentration at which inhibition is half-maximal.
